The term IC50 denotes the concentration needed to halve the response being measured.

Where “and” joins values, the source holds several entries; their conditions need not be identical. Equal entries are not always repeated. Some results are limits rather than exact numbers.

The target of this test is IDO1 (Homo sapiens, UniProt P14902). The test can be described thus: Biochemical IDO1 assay (NFK GreenScreen). As to conditions: for IC50: recombinant full-length IDO1 25 nM, L-tryptophan 100 μM, NFK Green detection, read-out: IC50, inhibitory potency on IDO1; for relative activity of separated isomers: less active / most active isomer of the pair, assay not given. Further details: Recombinant full-length IDO1 (Seegers, N., et al.) and all other assay components were diluted in IDO1 reaction buffer; made in house. The procedure:
Inhibition of IDO1 activity can be measured by determining the enzymatic conversion of L-tryptophan into N-formylkynurenine (NFK) in a reaction mixture containing IDO1 and test compound. The formation of NFK can be detected directly by, for instance, high-performance liquid chromatography (HPLC) methods, or by intrinsic fluorescence.
Compounds were serially diluted in dimethylsulfoxide (DMSO) and finally in IDO1 reaction buffer, consisting of 50 mM NaH2PO4, pH7.0, supplemented with 0.05% Tween-20 (cat. No. P7949; Sigma Aldrich) and 1% glycerol. Recombinant full-length IDO1 (Seegers, N., et al.) and all other assay components were diluted in IDO1 reaction buffer. […] Subsequently, 10 μl of 0.4 mM of the substrate L-tryptophan was added, i.e., the final concentration of L-tryptophan was 100 μM. The DMSO concentration in the assay was 0.3%. […] Incubation was continued for 60 min at room temperature. Then, 10 μl of NFK Green™ (NTRC, Oss, The Netherlands) was added, the plate was sealed, and the reaction was developed for 3 hours at 37° C. To determine the production of N-formyl kynurenine (NFK), the seal was removed and fluorescence was read on an EnVision multimode reader (Perkin Elmer, Waltham, Mass., USA). IC50 were calculated using XLfit™ software (ID Business Solutions, Ltd., Surrey, U.K.).

Sequence of IDO1 (P14902 whole entry, species assumed): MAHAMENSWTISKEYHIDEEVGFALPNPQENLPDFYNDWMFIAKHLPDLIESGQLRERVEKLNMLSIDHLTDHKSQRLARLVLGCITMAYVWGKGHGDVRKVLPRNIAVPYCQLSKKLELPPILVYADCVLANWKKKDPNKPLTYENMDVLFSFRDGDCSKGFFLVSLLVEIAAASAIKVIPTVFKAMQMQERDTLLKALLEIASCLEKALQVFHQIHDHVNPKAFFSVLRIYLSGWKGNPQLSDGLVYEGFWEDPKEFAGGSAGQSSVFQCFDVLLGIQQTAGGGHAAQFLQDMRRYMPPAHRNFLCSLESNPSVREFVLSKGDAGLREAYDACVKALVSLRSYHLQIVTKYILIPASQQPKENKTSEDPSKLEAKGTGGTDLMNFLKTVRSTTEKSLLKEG

As to `CCOC(=O)NC[C@H]1CC[C@H](C(=O)N2CC(=O)N(O)C2c2cccc(Br)c2)CC1` (relative stereo) [Example 102, (Trans)-ethyl N-[[4-[2-(3-bromophenyl)-3-hydroxy-4-oxo-imidazolidine-1-carbonyl]cyclohexyl]-methyl]carbamate], the 50% inhibitory concentration (IC50) is ≤ 5 µM and 1 to 5 µM.
For `C[C@@H]1C(=O)N(O)C(c2cccc(Br)c2)N1C(=O)c1ccccc1F` (single isomer, unassigned) [Example 57], the IC50 is ≤ 5 µM and 1 to 5 µM.
Still for that read-out and setting: the same measure for `O=C1CN(C(=O)c2ccccc2)C(c2cccc(Br)c2)N1O` (single isomer, unassigned) [Example 63a, 1-benzoyl-2-(3-bromophenyl)-3-hydroxy-imidazolidin-4-one]: ≤ 1 µM.
Still for that read-out and setting: the same measure for `O=C1CN(C(=O)c2ccccc2)C(c2cccc(Br)c2)N1O` (single isomer, unassigned) [Example 63b, 1-benzoyl-2-(3-bromophenyl)-3-hydroxy-imidazolidin-4-one]: ≤ 5 µM and 1 to 5 µM; for `O=C1CN(C(=O)c2ccccc2)C(c2cccc(Br)c2)N1O` (single isomer, unassigned) [Example 64, 1-benzoyl-2-(3-bromophenyl)-3-hydroxy-imidazolidin-4-one]: ≤ 5 µM and 1 to 5 µM.
On to `C[C@@H](c1ccccc1)N1CC(=O)N(O)C1c1cccc(Br)c1` (single isomer, unassigned) [Example 139a], for which the “relative activity of separated isomers” value was “less active isomer”.
With `C[C@@H](c1ccccc1)N1CC(=O)N(O)C1c1cccc(I)c1` (single isomer, unassigned) [Example 140b], the “relative activity of separated isomers” value is recorded as “most active isomer” and the IC50 is ≤ 1 µM.
Regarding `O=C1CN(C(=O)c2c(F)cccc2F)C(c2cccc(Br)c2)N1O` (single isomer, unassigned) [Example 142b, 2-(3-bromophenyl)-1-(2,6-difluorobenzoyl)-3-hydroxy-imidazolidin-4-one], the “relative activity of separated isomers” value is “most active isomer” and the IC50 is ≤ 1 µM.
For `O=C1CN(C(=O)c2c(F)cccc2Cl)C(c2ccc(F)c(Br)c2)N1O` (single isomer, unassigned) [Example 143a, 2-(3-bromo-4-fluoro-phenyl)-1-(2-chloro-6-fluoro-benzoyl)-3-hydroxy-imidazolidin-4-one], the “relative activity of separated isomers” value is on record as “less active isomer”; the IC50 is ≤ 5 µM and 1 to 5 µM.
For the compound `O=C1CN(C(=O)c2c(F)cccc2Cl)C(c2ccc(F)c(Br)c2)N1O` (single isomer, unassigned) [Example 143b, 2-(3-bromo-4-fluoro-phenyl)-1-(2-chloro-6-fluoro-benzoyl)-3-hydroxy-imidazolidin-4-one], the “relative activity of separated isomers” value was “most active isomer” and the IC50 was ≤ 1 µM.
Turning to `O=C1CN(C(=O)c2c(F)cc(C#CC3CC3)cc2F)C(c2cccc(Br)c2)N1O` (single isomer, unassigned) [Example 144a, 2-(3-bromophenyl)-1-[4-(2-cyclopropylethynyl)-2,6-difluoro-benzoyl]-3-hydroxy-imidazolidin-4-one], the “relative activity of separated isomers” value was “less active isomer” and the IC50 is ≤ 1 µM.
With `O=C1CN(C(=O)c2c(F)cc(C#CC3CC3)cc2F)C(c2cccc(Br)c2)N1O` (single isomer, unassigned) [Example 144b, 2-(3-bromophenyl)-1-[4-(2-cyclopropylethynyl)-2,6-difluoro-benzoyl]-3-hydroxy-imidazolidin-4-one], the “relative activity of separated isomers” value was “most active isomer” and the IC50 is ≤ 1 µM.
For the compound `O=C1CN(Cc2c(F)cccc2F)C(c2cccc(Br)c2)N1O` (single isomer, unassigned) [Example 145a, 2-(3-bromophenyl)-1-[(2,6-difluorophenyl)methyl]-3-hydroxy-imidazolidin-4-one], the “relative activity of separated isomers” value is on record as “less active isomer” and the IC50 was ≤ 1 µM.
As for `O=C1CN(Cc2c(F)cccc2F)C(c2cccc(Br)c2)N1O` (single isomer, unassigned) [Example 145b, 2-(3-bromophenyl)-1-[(2,6-difluorophenyl)methyl]-3-hydroxy-imidazolidin-4-one], the “relative activity of separated isomers” value was “most active isomer” and the IC50 was ≤ 1 µM.
The corresponding values for `O=C1CN(Cc2ccccc2F)C(c2cccc(I)c2)N1O` (single isomer, unassigned) [Example 146a, 1-[(2-fluorophenyl)methyl]-3-hydroxy-2-(3-iodophenyl)imidazolidin-4-one] are “less active isomer” and ≤ 1 µM.
Consider `O=C1CN(Cc2ccccc2F)C(c2cccc(I)c2)N1O` (single isomer, unassigned) [Example 146b, 1-[(2-fluorophenyl)methyl]-3-hydroxy-2-(3-iodophenyl)imidazolidin-4-one], for which the “relative activity of separated isomers” value is “most active isomer” and the 50% inhibitory concentration (IC50) was ≤ 1 µM.
With `NS(=O)(=O)NCC#Cc1cc(F)c(C(=O)N2CC(=O)N(O)C2c2cccc(Br)c2)c(F)c1` (single isomer, unassigned) [Example 147b, 2-(3-bromophenyl)-1-[2,6-difluoro-4-[3-(sulfamoylamino)prop-1-ynyl]benzoyl]-3-hydroxy-4-oxo-imidazolidine], the “relative activity of separated isomers” value was “most active isomer” and the IC50 was ≤ 1 µM.
Take `O=C1CN(C(=O)c2ccccc2)C(c2cccc(C(F)(F)F)c2)N1O` (stereo not shown) [Example 1, 1-Benzoyl-3-hydroxy-2-[3-(trifluoromethyl)phenyl]imidazolidin-4-one]: the IC50 is ≤ 5 µM and 1 to 5 µM.
On the same count and under the same terms, the same measure for `O=C1CN(C(=O)c2ccccc2F)C(c2ccc(Cl)c(C(F)(F)F)c2)N1O` (stereo not shown) [Example 8, 2-[4-Chloro-3-(trifluoromethyl)phenyl]-1-(2-fluorobenzoyl)-3-hydroxy-imidazolidin-4-one]: ≤ 5 µM and 1 to 5 µM.
For `O=C1CN(C(=O)c2c(F)cccc2Cl)C(c2cccc(Cl)c2)N1O` (stereo not shown) [Example 14, 1-(2-Chloro-6-fluoro-benzoyl)-2-(3-chlorophenyl)-3-hydroxy-imidazolidin-4-one], the IC50 was ≤ 5 µM and 1 to 5 µM.
The same measure, in the same setting: the same measure for `O=C1CN(C(=O)c2ccc(Cl)cc2Cl)C(c2cccc(Br)c2)N1O` (stereo not shown) [Example 16, 2-(3-Bromophenyl)-1-(2,4-dichlorobenzoyl)-3-hydroxy-imidazolidin-4-one]: ≤ 5 µM and 1 to 5 µM; for `COc1ccc(C(=O)N2CC(=O)N(O)C2c2cccc(Br)c2)cc1` (stereo not shown) [Example 18, 2-(3-Bromophenyl)-3-hydroxy-1-(4-methoxybenzoyl)imidazolidin-4-one]: ≤ 5 µM and 1 to 5 µM; for `Cc1ccccc1C(=O)N1CC(=O)N(O)C1c1cccc(Br)c1` (stereo not shown) [Example 20, 2-(3-Bromophenyl)-3-hydroxy-1-(2-methylbenzoyl)imidazolidin-4-one]: ≤ 5 µM and 1 to 5 µM.
With `O=C1CN(C(=O)C2CCC2)C(c2ccc(F)c(Br)c2)N1O` (stereo not shown) [Example 23, 2-(3-Bromo-4-fluoro-phenyl)-1-(cyclobutanecarbonyl)-3-hydroxy-imidazolidin-4-one], the IC50 is ≤ 5 µM and 1 to 5 µM.
Same read-out and setting: the same measure for `O=C1CN(C(=O)c2ccccc2Br)C(c2cccc(Br)c2)N1O` (stereo not shown) [Example 24, 1-(2-Bromobenzoyl)-2-(3-bromophenyl)-3-hydroxy-imidazolidin-4-one]: ≤ 5 µM and 1 to 5 µM; for `O=C1CN(C(=O)c2ccccc2C(F)(F)F)C(c2cccc(Br)c2)N1O` (stereo not shown) [Example 28, 2-(3-Bromophenyl)-3-hydroxy-1-[2-(trifluoromethyl)benzoyl]imidazolidin-4-one]: ≤ 5 µM and 1 to 5 µM.
For `O=C1CN(C(=O)c2ccc(F)cc2)C(c2cccc(Br)c2)N1O` (stereo not shown) [Example 29, 2-(3-Bromophenyl)-1-(4-fluorobenzoyl)-3-hydroxy-imidazolidin-4-one], the IC50 was ≤ 5 µM and 1 to 5 µM.
Regarding `O=C1CN(C(=O)c2ccc(F)cc2Cl)C(c2cccc(Br)c2)N1O` (stereo not shown) [Example 30, 2-(3-Bromophenyl)-1-(2-chloro-4-fluoro-benzoyl)-3-hydroxy-imidazolidin-4-one], the IC50 was ≤ 5 µM and 1 to 5 µM.
Regarding `O=C1CN(C(=O)c2cc(F)ccc2Cl)C(c2cccc(Br)c2)N1O` (stereo not shown) [Example 31, 2-(3-Bromophenyl)-1-(2-chloro-5-fluoro-benzoyl)-3-hydroxy-imidazolidin-4-one], the half-maximal inhibitory concentration (IC50) is ≤ 5 µM and 1 to 5 µM.
Same read-out and setting: the same measure for `O=C1CN(C(=O)c2cccc(F)c2)C(c2cccc(Br)c2)N1O` (stereo not shown) [Example 36, 2-(3-Bromophenyl)-1-(3-fluorobenzoyl)-3-hydroxy-imidazolidin-4-one]: ≤ 1 µM; for `O=C1CN(C(=O)c2c(F)cccc2C(F)(F)F)C(c2cccc(Br)c2)N1O` (stereo not shown) [Example 37, 2-(3-Bromophenyl)-1-[2-fluoro-6-(trifluoromethyl)benzoyl]-3-hydroxy-imidazolidin-4-one]: ≤ 1 µM; for `O=C1CN(C(=O)c2ccc(C(F)(F)F)cc2F)C(c2cccc(Br)c2)N1O` (stereo not shown) [Example 38, 2-(3-Bromophenyl)-1-[2-fluoro-4-(trifluoromethyl)benzoyl]-3-hydroxy-imidazolidin-4-one]: ≤ 5 µM and 1 to 5 µM.

The values above are taken from US10494360B2, “Inhibitors of indoleamine 2,3-dioxygenase” (NETHERLANDS TRANSLATIONAL RESEARCH CENTER B.V., priority 2016, dated 2019).
